Data as given in patent US9181185B2, “Heteroaryl compounds as sodium channel blockers” (Purdue Pharma L.P., priority 2011, dated 2015).
Where two headings read alike, the source gives them in different places.

Legend:
human Nav1.7 = human Nav1.7 (Homo sapiens (Human), UniProt Q15858); assay: FLIPR or FLIPR TETRA sodium dye assay with KCl and test article pre-incubation; type: cell-based
hNav1.7 = hNav1.7 (Homo sapiens (Human), UniProt Q15858); assay: Electrophysiology (EP) assay, whole-cell patch clamp; type: cell-based; details: hNav1.7 HEK-293 cells; for Kd: Kf (method describes resting block dissociation constant Kr), read-out: EP Nav 1.7 Kf (μM) ± SEM; for Ki: affinity for inactivated state, read-out: EP Nav 1.7 Ki (μM) ± SEM
Method: Cells: The hNav1.7 expressing HEK-293 cells were plated on 35 mm culture dishes pre-coated with poly-D-lysine in standard DMEM culture media (Mediatech, Inc., Herndon, Va.) and incubated in a 5% CO2 incubator at 37° C. Cultured cells were used approximately 12-48 hours after plating.
Electrophysiology: On the day of experimentation, the 35 mm dish was placed on the stage of an inverted microscope equipped with a perfusion system that continuously perfuses the culture dish with fresh recording media. A gravity driven superfusion system was used to apply test solutions directly to the cell under evaluation. This system consists of an array of glass pipette glass connected to a motorized horizontal translator. The outlet of the shooter was positioned approximately 100 μm from the cell of interest.
Whole cell currents were recorded using the whole-cell patch clamp configuration using an Axopatch 200B amplifier (Axon Instruments, Foster City Calif.), 1322A A/D converter (Axon Instruments) and pClamp software (v. 8; Axon Instruments) and stored on a personal computer. Gigaseals were formed and the whole-cell configuration was established in voltage clamp mode, and membrane currents generated by hNav1.7 were recorded in gap-free mode. Borosilicate glass pipettes have resistance values between 1.5 and 2.0 MΩ when filled with pipette solution and series resistance (<5 MΩ) was compensated 75-80%. Signals were sampled at 50 kHz and low pass filtered at 3 kHz.
Voltage Protocols: After establishing the whole-cell configuration in voltage clamp mode, voltage protocols were run to establish the 1) test potential, 2) holding potential, and 3) the conditioning potential for each cell.
After establishing the whole-cell configuration in voltage clamp mode, a standard I-V protocol was run to determine the potential at which the maximal current (Imax) is elicited. This potential was the test potential (Vt). To determine a conditioning potential at which 100% of channels were in the inactivated state, a standard steady-state inactivation (SSIN) protocol was run using a series of fifteen 100 ms-long depolarizing prepulses, incrementing in 10 mV steps, immediately followed by a 5 ms testing pulse, Vt, to Vmax. This protocol also permitted determination of the holding potential at which all channels are in the resting state.
For compounds causing significant retardation of recovery from inactivation, an estimate of the affinity for the inactivated state of the channel (Ki) was generated using the following protocol. From the negative, no residual inactivation, holding potential, the cell was depolarized to the conditioning voltage for 2-5 seconds, returned to the negative holding potential for 10-20 ms to relieve fast inactivation and then depolarized to the test potential for ˜15 ms. This voltage protocol was repeated every 10-15 seconds, first to establish a baseline in the absence of the test compound, then in the presence of the test compound.
After a stable baseline was established, the test compound was applied and block of the current elicited by the test pulse assessed. In some cases, multiple cumulative concentrations were applied to identify a concentration that blocked between 40-60% of this current. Washout of the compound was attempted by superfusing with control solution once steady-state block was observed. An estimate of the Ki was calculated as follows: Ki=[drug]*{FR/(1−FR)}, Eq. 1 where [drug] is the concentration of a drug, and FR=I(after drug)/l(control), Eq. 2 where I is the peak current amplitude. If multiple concentrations were used, Ki was determined from the fit of a logistic equation to FRs plotted against corresponding drug concentrations.
In the alternative, the voltage clamp protocol to examine hNav1.7 currents was as follows. […]

[1] = read-out: FLIPR Nav 1.7 IC50 (μM) ± SEM
[2] = recombinant HEK293 cells expressing human Nav1.7, CoroNa Green sodium dye, veratridine + scorpion venom, read-out: FLIPR Nav 1.7 IC50 (μM) ± SEM

hNav1.7, sequence (Q15858 other isoform, or with tags, fused parts or gaps): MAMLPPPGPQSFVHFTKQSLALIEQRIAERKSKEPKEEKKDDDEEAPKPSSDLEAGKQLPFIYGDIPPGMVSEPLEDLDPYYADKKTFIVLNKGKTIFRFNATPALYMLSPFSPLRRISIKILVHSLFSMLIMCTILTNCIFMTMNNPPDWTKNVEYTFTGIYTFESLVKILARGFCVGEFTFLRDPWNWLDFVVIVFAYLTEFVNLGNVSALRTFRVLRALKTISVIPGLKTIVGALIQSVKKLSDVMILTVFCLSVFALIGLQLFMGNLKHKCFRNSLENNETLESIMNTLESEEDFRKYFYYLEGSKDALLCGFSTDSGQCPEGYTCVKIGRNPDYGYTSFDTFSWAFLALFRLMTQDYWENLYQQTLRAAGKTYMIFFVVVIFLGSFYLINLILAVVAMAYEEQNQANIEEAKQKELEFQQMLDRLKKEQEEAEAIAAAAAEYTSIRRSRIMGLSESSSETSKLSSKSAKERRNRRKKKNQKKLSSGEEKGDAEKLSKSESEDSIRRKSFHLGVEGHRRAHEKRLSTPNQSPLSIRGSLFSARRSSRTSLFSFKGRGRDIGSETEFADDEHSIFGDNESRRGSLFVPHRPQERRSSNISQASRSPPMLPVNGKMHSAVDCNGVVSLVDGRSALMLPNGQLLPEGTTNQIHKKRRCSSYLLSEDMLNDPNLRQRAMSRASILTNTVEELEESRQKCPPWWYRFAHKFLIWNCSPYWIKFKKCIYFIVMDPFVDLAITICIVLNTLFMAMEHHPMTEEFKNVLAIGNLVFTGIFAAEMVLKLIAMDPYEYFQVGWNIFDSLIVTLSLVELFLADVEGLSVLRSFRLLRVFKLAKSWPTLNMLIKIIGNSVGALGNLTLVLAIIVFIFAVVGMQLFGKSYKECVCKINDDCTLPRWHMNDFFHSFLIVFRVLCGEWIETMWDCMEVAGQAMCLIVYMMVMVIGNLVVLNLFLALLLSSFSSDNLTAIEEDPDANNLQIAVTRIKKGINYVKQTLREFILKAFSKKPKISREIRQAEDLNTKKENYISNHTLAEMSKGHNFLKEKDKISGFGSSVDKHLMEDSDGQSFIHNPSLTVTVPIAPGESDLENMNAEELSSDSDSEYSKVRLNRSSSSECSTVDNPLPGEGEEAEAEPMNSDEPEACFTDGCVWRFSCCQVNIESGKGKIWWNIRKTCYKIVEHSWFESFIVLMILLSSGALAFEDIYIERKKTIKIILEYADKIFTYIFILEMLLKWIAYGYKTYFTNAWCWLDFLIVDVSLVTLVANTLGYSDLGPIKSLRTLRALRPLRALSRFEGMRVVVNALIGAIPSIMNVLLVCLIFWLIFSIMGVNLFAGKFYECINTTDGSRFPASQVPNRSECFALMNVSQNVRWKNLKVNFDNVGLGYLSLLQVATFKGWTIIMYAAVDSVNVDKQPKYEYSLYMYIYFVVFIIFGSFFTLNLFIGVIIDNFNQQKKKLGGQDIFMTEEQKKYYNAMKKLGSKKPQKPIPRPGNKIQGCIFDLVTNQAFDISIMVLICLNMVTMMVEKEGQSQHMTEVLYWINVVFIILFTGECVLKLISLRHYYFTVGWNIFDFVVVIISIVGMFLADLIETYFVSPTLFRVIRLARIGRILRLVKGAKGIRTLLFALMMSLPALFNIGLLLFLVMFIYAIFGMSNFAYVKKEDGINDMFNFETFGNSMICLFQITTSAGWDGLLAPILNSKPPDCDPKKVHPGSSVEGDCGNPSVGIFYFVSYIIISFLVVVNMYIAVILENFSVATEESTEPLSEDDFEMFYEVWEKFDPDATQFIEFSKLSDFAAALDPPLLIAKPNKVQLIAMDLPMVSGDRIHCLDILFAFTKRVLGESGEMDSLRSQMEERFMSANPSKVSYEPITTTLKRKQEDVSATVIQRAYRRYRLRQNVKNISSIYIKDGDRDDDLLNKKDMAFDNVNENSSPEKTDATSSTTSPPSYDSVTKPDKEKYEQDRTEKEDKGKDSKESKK
human Nav1.7, sequence (Q15858 other isoform, or with tags, fused parts or gaps): as above

NC(=O)[C@H](O)[C@@H](O)c1cn(-c2ccc(Oc3ccc(C(F)(F)F)cn3)cc2)c2ccccc12 [Compound 5, (2R,3S)-2,3-Dihydroxy-3-(1-(4-((5-(trifluoromethyl)pyridin-2-yl)oxy)phenyl)-1H-indol-3-yl)propanamide]
IC50 (human Nav1.7; [1]): 0.314 ± 0.038 µM

NC(=O)[C@H](O)[C@@H](O)c1cccc(-c2ccc(Oc3ccc(Cl)cn3)cc2)n1
IC50 (human Nav1.7; [1]): 1.44 ± 0.078 µM

CNC(=O)[C@@H](O)[C@H](O)c1cn(-c2ccc(Oc3ccc(C(F)(F)F)cn3)cc2)c2ccccc12 [Compound 7, (2S,3R)-2,3-Dihydroxy-N-methyl-3-(1-(4-((5-(trifluoromethyl)pyridin-2-yl)oxy)phenyl)-1H-indol-3-yl)propanamide]
IC50 (human Nav1.7; [2]): 0.282 ± 0.002 µM

N#Cc1cc(Oc2ccc(-c3cccc([C@H](O)[C@@H](O)C(N)=O)n3)cc2)ccc1C(F)(F)F [Compound 19, (2R,3S)-3-(6-(4-(3-Cyano-4-(trifluoromethyl)phenoxy)phenyl)pyridin-2-yl)-2,3-dihydroxypropanamide]
IC50 (human Nav1.7; [1]): 0.244 ± 0.05 µM
Kd (hNav1.7): 17.1 ± 4.24 µM
Ki (hNav1.7): 0.347 ± 0.07 µM

NC(=O)[C@H](O)[C@@H](O)c1cccc(-c2ccc(Oc3ccc(Cl)nc3)cc2)n1
IC50 (human Nav1.7; [2]): 0.804 ± 0.044 µM

CCOC(=O)[C@@H](O)[C@H](O)c1cccc(-c2ccc(Oc3ccc(C(F)(F)F)c(C#N)c3)cc2)n1 [Compound 14, (2S,3R)-Ethyl 3-(6-(4-(3-cyano-4-(trifluoromethyl)phenoxy)phenyl)pyridin-2-yl)-2,3-dihydroxypropanoate]
IC50 (human Nav1.7): 0.246 ± 0.031 µM

NC(=O)[C@@H](O)[C@H](O)c1cccc(-c2ccc(Oc3ccc(C(F)(F)F)cc3)cc2)n1
IC50 (human Nav1.7; [2]): 0.13 ± 0.025 µM

N#Cc1ccc(Oc2ccc(-c3cccc([C@H](O)[C@@H](O)C(N)=O)n3)cc2)cc1
IC50 (human Nav1.7; [2]): 0.69 ± 0.071 µM

N#Cc1ccc(Oc2ccc(-c3cccc([C@H](O)[C@@H](O)C(N)=O)n3)cc2)cc1C(F)(F)F
IC50 (human Nav1.7; [2]): 0.489 ± 0.04 µM

NC(=O)[C@H](O)[C@@H](O)c1cccc(-c2ccc(Oc3ccc(F)cc3)cc2)n1
IC50 (human Nav1.7; [1]): 1.84 ± 0.309 µM

N#Cc1cc(Oc2ccc(-c3cccc([C@@H](O)[C@H](O)C(N)=O)n3)cc2)ccc1C(F)(F)F [Compound 15, (2S,3R)-3-(6-(4-(3-Cyano-4-(trifluoromethyl)phenoxy)phenyl)pyridin-2-yl)-2,3-dihydroxypropanamide]
IC50 (human Nav1.7; [1]): 0.304 ± 0.022 µM
Kd (hNav1.7): 32.9 ± 6.89 µM
Ki (hNav1.7): 0.917 ± 0.05 µM

N#Cc1ccc(Oc2ccc(-c3cccc([C@@H](O)[C@H](O)C(N)=O)n3)cc2)cc1C(F)(F)F
IC50 (human Nav1.7; [2]): 0.461 ± 0.045 µM

CCOC(=O)[C@@H](O)[C@H](O)c1cn(-c2ccc(Oc3ccc(C(F)(F)F)cn3)cc2)c2ccccc12 [Compound 6, (2S,3R)-Ethyl 2,3-dihydroxy-3-(1-(4-((5-(trifluoromethyl)pyridin-2-yl)oxy)phenyl)-1H-indol-3-yl)propanoate]
IC50 (human Nav1.7; [2]): 0.152 ± 0.031 µM

NC(=O)[C@H](O)[C@@H](O)c1ccnc(-c2ccc(Oc3ccc(F)cc3)cc2)n1 [Compound 26, (2R,3S)-3-(2-(4-(4-fluorophenoxy)phenyl)pyrimidin-4-yl)-2,3-dihydroxypropanamide]
IC50 (human Nav1.7; [2]): 0.625 ± 0.058 µM
Kd (hNav1.7): 97.9 ± 23.1 µM
Ki (hNav1.7): 2.26 ± 0.61 µM

N#Cc1ccc(Oc2ccc(-c3cccc([C@@H](O)[C@H](O)C(N)=O)n3)cc2)cc1
IC50 (human Nav1.7; [2]): 0.262 ± 0.017 µM

NC(=O)[C@H](O)[C@@H](O)c1cccc(-c2ccc(Oc3ccc(C(F)(F)F)cc3)cc2)n1
IC50 (human Nav1.7; [2]): 0.383 ± 0.072 µM

NC(=O)[C@@H](O)[C@H](O)c1cccc(-c2ccc(Oc3ccc(Cl)cn3)cc2)n1
IC50 (human Nav1.7; [1]): 1.19 ± 0.074 µM

NC(=O)[C@@H](O)[C@H](O)c1cn(-c2ccc(Oc3ccc(C(F)(F)F)cn3)cc2)c2ccccc12 [Compound 8, (2S,3R)-2,3-Dihydroxy-3-(1-(4-((5-(trifluoromethyl)pyridin-2-yl)oxy)phenyl)-1H-indol-3-yl)propanamide]
IC50 (human Nav1.7; [1]): 0.193 ± 0.049 µM

NC(=O)[C@H](O)[C@@H](O)c1cccc(-c2ccc(Oc3ccc(C(F)(F)F)cn3)cc2)n1
IC50 (human Nav1.7; [2]): 1.69 ± 0.019 µM

NC(=O)[C@@H](O)[C@H](O)c1cccc(-c2ccc(Oc3ccc(F)cc3)cc2)n1
IC50 (human Nav1.7; [1]): 1.41 ± 0.281 µM

NC(=O)[C@@H](O)[C@H](O)c1cccc(-c2ccc(Oc3ccc(C(F)(F)F)cn3)cc2)n1
IC50 (human Nav1.7; [2]): 0.711 ± 0.05 µM

NC(=O)[C@@H](O)[C@H](O)c1cccc(-c2ccc(Oc3ccc(Cl)nc3)cc2)n1
IC50 (human Nav1.7; [2]): 0.376 ± 0.057 µM
